In one test the target is T1, human P-Selectin protein (Homo sapiens, UniProt P16109).
T1 sequence (P16109 42-830): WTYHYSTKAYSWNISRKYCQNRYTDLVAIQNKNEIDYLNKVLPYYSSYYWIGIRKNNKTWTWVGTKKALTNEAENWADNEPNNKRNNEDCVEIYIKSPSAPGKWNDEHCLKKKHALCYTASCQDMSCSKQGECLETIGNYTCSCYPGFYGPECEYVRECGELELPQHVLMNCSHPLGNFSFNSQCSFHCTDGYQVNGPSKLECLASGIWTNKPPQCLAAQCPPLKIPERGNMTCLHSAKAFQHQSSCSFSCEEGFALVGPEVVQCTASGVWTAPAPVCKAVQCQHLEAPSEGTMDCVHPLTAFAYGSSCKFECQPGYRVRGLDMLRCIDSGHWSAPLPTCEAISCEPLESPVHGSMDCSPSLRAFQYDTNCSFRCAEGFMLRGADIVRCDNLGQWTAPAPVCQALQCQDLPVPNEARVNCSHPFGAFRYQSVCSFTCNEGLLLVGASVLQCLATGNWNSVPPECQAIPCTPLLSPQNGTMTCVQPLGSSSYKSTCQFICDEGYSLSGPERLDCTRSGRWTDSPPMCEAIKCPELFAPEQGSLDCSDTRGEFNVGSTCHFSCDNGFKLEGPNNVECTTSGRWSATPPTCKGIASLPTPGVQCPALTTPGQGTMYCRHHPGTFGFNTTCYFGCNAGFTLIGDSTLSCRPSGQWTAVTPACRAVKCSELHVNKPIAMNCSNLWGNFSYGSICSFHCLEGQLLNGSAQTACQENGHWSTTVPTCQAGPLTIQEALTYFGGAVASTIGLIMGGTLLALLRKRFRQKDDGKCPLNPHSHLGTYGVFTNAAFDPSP
The test can be described thus: SPR binding assay (Biacore). The settings on record: recombinant biotinylated human P-Selectin, 25° C.; read-out: Affinity KD determined by SPR. How it is done:
Biacore experiments were performed to determine ka (M−1s−1), kd (s−1), KD (nM) values of monomeric peptides binding to human Selectin proteins. Recombinant biotinylated human P-Selectin protein was used. For analysis of binding, either a Biacore 3000 or 5200 instrument was used with a CMS sensor chip (GE Healthcare). For sensor chip surface preparation, streptavidin was immobilized on the chip using standard amine-coupling chemistry at 25° C. with HBS-N (10 mM HEPES, 0.15 M NaCl, pH 7.4) as the running buffer. The carboxymethyl dextran surface was activated with a 12 min injection of a 1:1 ratio of 0.4 M 1-ethyl-3-(3-dim ethyl aminopropyl) carbodiimide hydrochloride (EDC)/0.1 M N-hydroxy succinimide (NHS) at a flow rate of 10 μl/min. For capture of streptavidin, protein was diluted to 0.2 mg/ml in 10 mM sodium acetate (pH 4.5) and captured by injecting 70 μl onto the activated chip surface. Residual activated groups were blocked with a 7 min injection of 1 M ethanolamine (pH 8.5). Biotinylated protein stock was diluted 1:100 in HBS-N and captured on one flow cell at 5 μl/min to a level of 1000-1500 RU. Buffer was changed to PBS/0.05% Tween 20 and a dilution series of the peptides was prepared in this buffer with a final DMSO concentration of 0.5%. The top concentration of the analyte varied from 200 nM to 50 μM; depending on predicted affinity of the interaction. In all cases a titration was performed with either seven 2-fold dilutions or five 3-fold dilutions. The SPR analysis was run at 25° C. with a flow rate of 50-80 μl/min with 60 seconds association and a suitable disassociation period (100-900 seconds). Data were corrected for DMSO excluded volume effects. All data were double-referenced for blank injections and reference surface using standard processing procedures and data processing and kinetic fitting were performed using Scrubber software, version 2.0c (BioLogic Software). Data were fitted using mass transport model allowing for mass transport effects where appropriate.
A general note: Surface plasmon resonance follows binding to a sensor surface in real time, without labels.

Test [1] addresses T2, P-Selectin:PSGL1 interaction (Homo sapiens, UniProt P16109).
T2 construct: host or cells: HL-60 cells (ATCC, CCL-240) supply the PSGL-1 partner endogenously
T2 sequence (P16109 42-771 limits assumed): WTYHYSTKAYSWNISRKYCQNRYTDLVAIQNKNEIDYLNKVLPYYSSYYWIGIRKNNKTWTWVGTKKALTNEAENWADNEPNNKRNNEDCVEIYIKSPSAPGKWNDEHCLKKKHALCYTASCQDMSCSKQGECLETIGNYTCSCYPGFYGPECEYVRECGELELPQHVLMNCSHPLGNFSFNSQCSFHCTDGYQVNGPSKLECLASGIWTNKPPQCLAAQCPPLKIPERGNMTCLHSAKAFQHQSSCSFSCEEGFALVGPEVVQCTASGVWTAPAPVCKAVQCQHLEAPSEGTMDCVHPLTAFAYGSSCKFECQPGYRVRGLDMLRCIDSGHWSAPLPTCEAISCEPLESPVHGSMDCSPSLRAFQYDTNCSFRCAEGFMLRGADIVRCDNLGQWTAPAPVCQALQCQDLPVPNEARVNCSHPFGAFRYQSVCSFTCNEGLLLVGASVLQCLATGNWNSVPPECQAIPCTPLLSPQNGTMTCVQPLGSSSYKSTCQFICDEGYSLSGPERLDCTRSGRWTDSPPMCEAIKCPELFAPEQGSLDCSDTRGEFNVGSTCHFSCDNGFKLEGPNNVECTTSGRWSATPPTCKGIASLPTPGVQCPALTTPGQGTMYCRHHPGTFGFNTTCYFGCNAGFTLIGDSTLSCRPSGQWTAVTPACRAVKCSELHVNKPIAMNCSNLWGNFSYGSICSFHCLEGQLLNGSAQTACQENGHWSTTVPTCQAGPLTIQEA
In words: Receptor ligand inhibition assay (P-Selectin binding to HL-60 cells). The class given is cell-based. The settings on record: geomean of n=3; for IC50: 5 nM P-Selectin, HL-60 cells, read-out: IC50; for Inhibition at top concentration: 100−% response at top concentration. How it is done: Bicycle test samples, SelG1 (Crizanlizumab) were serially diluted maintaining 0.5% DMSO in assay buffer (25 mM HEPES, 121 mM NaCl, 5.4 mM KCl, 0.8 mM MgCl2, 1.8 mM CaCl2), 6 mM […], 5.5 mM glucose, 1% BSA, pH7.4) and transferred to 384 well clear bottom plates (Corning, 3712) with a final volume of 6 μL. […], of P-Selectin in imaging buffer (25 mM HEPES, 121 mM NaCl, 5.4 mM KCl, 0.8 mM MgCl2, 1.8 mM CaCl2), 6 mM […], 5.5 mM glucose, pH7.4) was added to give a 5 nM final concentration and incubated at room temperature for 15 minutes. HL-60 cells (ATCC, CCL-240) mixed with 1 μg/mL far red labelled wheat germ agglutinin (WGA, ThermoFisher W21404) and 1 μg/mL AlexaFluor 488-streptavidin (Invitrogen S11223) were added to the plate and incubated for 2 hours at room temperature in the absence of light. Staining and antibody binding were quantified by simultaneously scanning the microplates with 488 nm and 640 nm lasers on a mirrorball microplate cytometer, AF488 on FL2 triggering on AF647-WGA on FL4. Data was analysed in Dotmatics, using a four parameter logistic fit to generate IC50 values and % response. Percent inhibition was calculated using 100−% response at top concentration.

Starred links: 1 amine or outer side, 2 acyl side, 3 side chain; linkers in the order of their positions; H or OH if unused. Positions of bridges follow the written chain, without caps; N, C: chain ends. Non-standard residues stand in square brackets, D forms with d. Residues, ends and D or L forms follow the SMILES beside them. TATA = O=C(CC[*:1])N1CN(C(=O)CC[*:2])CN(C(=O)CC[*:3])C1; X1 = O=C(C[*:1])N1CCN(C(=O)C[*:2])CCN(C(=O)C[*:3])CC1; 1Nal = N[C@@H](Cc1cccc2ccccc12)C(=O)O

By Kd is commonly meant the equilibrium constant for the complex coming apart. As for `CSCC[C@@H]1NC(=O)[C@H](Cc2ccc(O)cc2)NC(=O)[C@@H](NC(=O)[C@H](C)NC(=O)CCc2cn(CCOCCOCCOCCOCCOCCOCCOCCOCCOCCOCCNC(=O)CCOCCN(CCOCCC(=O)NCCOCCOCCOCCOCCOCCOCCOCCOCCOCCOCCn3cc(CCC(=O)N[C@@H](C)C(=O)N[C@H]4CSCCC(=O)N5CN6CN(C5)C(=O)CCSC[C@H](NC(=O)[C@H](Cc5c[nH]c7ccccc57)NC(=O)[C@H](CCC(=O)O)NC(=O)[C@H](CCSC)NC(=O)[C@H](Cc5ccc(O)cc5)NC4=O)C(=O)N[C@@H](CC(=O)O)C(=O)N[C@@H](C(C)C)C(=O)N[C@@H]([C@@H](C)O)C(=O)N[C@@H](CC(=O)O)C(=O)N[C@@H](Cc4ccc(O)cc4)C(=O)NCC(=O)N[C@H](C(=O)N[C@@H](C)C(N)=O)CSCCC6=O)nn3)CCOCCC(=O)NCCOCCOCCOCCOCCOCCOCCOCCOCCOCCOCCn3cc(CCC(=O)N[C@@H](C)C(=O)N[C@H]4CSCCC(=O)N5CN6CN(C5)C(=O)CCSC[C@H](NC(=O)[C@H](Cc5c[nH]c7ccccc57)NC(=O)[C@H](CCC(=O)O)NC(=O)[C@H](CCSC)NC(=O)[C@H](Cc5ccc(O)cc5)NC4=O)C(=O)N[C@@H](CC(=O)O)C(=O)N[C@@H](C(C)C)C(=O)N[C@@H]([C@@H](C)O)C(=O)N[C@@H](CC(=O)O)C(=O)N[C@@H](Cc4ccc(O)cc4)C(=O)NCC(=O)N[C@H](C(=O)N[C@@H](C)C(N)=O)CSCCC6=O)nn3)nn2)CSCCC(=O)N2CN3CN(C2)C(=O)CCSC[C@H](NC(=O)[C@H](Cc2c[nH]c4ccccc24)NC(=O)[C@H](CCC(=O)O)NC1=O)C(=O)N[C@@H](CC(=O)O)C(=O)N[C@@H](C(C)C)C(=O)N[C@@H]([C@@H](C)O)C(=O)N[C@@H](CC(=O)O)C(=O)N[C@@H](Cc1ccc(O)cc1)C(=O)NCC(=O)N[C@H](C(=O)N[C@@H](C)C(N)=O)CSCCC3=O` [BCY5458], the equilibrium dissociation constant (Kd) on human P-Selectin protein worked out at 400 nM.

A word on the IC50: it is the concentration needed to halve the response being measured. As a reminder, the Inhibition is the drop in the measured response relative to a control, in per cent. Turning to `CSCC[C@@H]1NC(=O)[C@H](Cc2ccc(O)cc2)NC(=O)[C@@H](NC(C)=O)CSCCC(=O)N2CN3CN(C2)C(=O)CCSC[C@H](NC(=O)[C@H](Cc2c[nH]c4ccccc24)NC(=O)[C@H](CCC(=O)O)NC1=O)C(=O)N[C@@H](CC(=O)O)C(=O)N[C@@H](C(C)C)C(=O)N[C@@H]([C@@H](C)O)C(=O)N[C@@H](CC(=O)O)C(=O)N[C@@H](Cc1ccc(O)cc1)C(=O)NCC(=O)N[C@H](C(N)=O)CSCCC3=O` [BCY9717, Ac-(SEQ ID NO: 6)] (Ac-CYMEWCDVTDYGC-NH2; linker 1-6-13 via TATA; C-terminus assumed), in test [1], the IC50 is more than 10.9 µM and the “Inhibition at top concentration” value came out at 20%. The like results for `CC(C)C[C@@H]1NC(=O)[C@H](CO)NC(=O)[C@@H]2CCCN2C(=O)[C@H](C(C)C)NC(=O)[C@H](CC(=O)O)NC(=O)[C@@H]2CSCC(=O)N3CCN(CCN(CC3)C(=O)CSC[C@@H](C(=O)N[C@@H](C)C(N)=O)NC(=O)[C@@H]3CCCN3C1=O)C(=O)CSC[C@H](NC(=O)[C@H](C)N)C(=O)N[C@@H](CC(=O)O)C(=O)N[C@@H](C)C(=O)N[C@@H](CC(=O)O)C(=O)N[C@@H](Cc1c[nH]c3ccccc13)C(=O)N2` [BCY11648, A-(SEQ ID NO: 3)-A] (H-ACDADWCDVPSLPCA-NH2; linker 2-7-14 via X1; N-terminus and C-terminus assumed) were, in that order, more than 0.117 µM and 37%. For `CSCC[C@@H]1NC(=O)[C@H](Cc2ccc(O)cc2)NC(=O)[C@@H](NC(=O)[C@H](C)NC(C)=O)CSCCC(=O)N2CN3CN(C2)C(=O)CCSC[C@H](NC(=O)[C@H](Cc2cccc4ccccc24)NC(=O)[C@H](CCC(=O)O)NC1=O)C(=O)N[C@@H](CC(=O)O)C(=O)N[C@@H](C(C)C)C(=O)N[C@@H]([C@@H](C)O)C(=O)N[C@@H](CC(=O)O)C(=O)N[C@@H](Cc1ccc(O)cc1)C(=O)NCC(=O)N[C@H](C(=O)N[C@@H](C)C(N)=O)CSCCC3=O` [BCY11279, Ac-A-(SEQ ID NO: 4)-A] (Ac-ACYME[1Nal]CDVTDYGCA-NH2; linker 2-7-14 via TATA) the same measures were more than 3.54 µM and 24%.
